Experimental data published in US20240382482A1, “PLASMA KALLIKREIN INHIBITORS” (TAKEDA PHARMACEUTICAL COMPANY LIMITED, priority 2021, published 2024).
Where a name gives a salt, the structure may show the parent alone.

Target: human activated kallikrein enzyme (Homo sapiens, UniProt P03952)
Experiment: Inhibition of human activated kallikrein enzyme, fluorogenic peptide substrate assay (500 pM enzyme format)
Assay type: biochemical
Settings: 500 pM activated kallikrein, 300 μM PFR-AMC substrate, 30 min preincubation, 10 min reaction, room temperature; read-out: Primary Dose Response Assay: Average EC50
Method: Compounds were evaluated for inhibition of the human activated kallikrein enzyme in two formats of an assay employing a fluorogenic peptide substrate. In one assay format, the concentrations of reagents were as follows: 20 mM Tris pH 7.5, 1 mM EDTA, 150 mM sodium chloride, 0.1% PEG-400, 0.1% Triton X-100, 500 pM activated kallikrein enzyme, 300 μM Pro-Phe-Arg-7-amido-4-methylcoumarin (PFR-AMC) substrate. Prior to reaction initiation with substrate, enzyme and inhibitors were preincubated for 30 min at room temperature. After initiation with substrate, reactions were incubated for 10 min at room temperature and fluorescence emission at 460 nm from 380 nm excitation measured with a microplate reader. In another assay format, the concentrations of reagents were as follows: 20 mM Tris pH 7.5, 1 mM EDTA, 150 mM sodium chloride, 0.1% PEG-400, 0.1% Triton X-100, 5 pM activated kallikrein enzyme, 300 uM PFR-AMC substrate. Prior to reaction initiation with substrate, enzyme and inhibitors were preincubated for 30 min at room temperature. After initiation with substrate, reactions were incubated for 18 hr at room temperature and fluorescence emission at 460 nm from 380 nm excitation measured with a microplate reader.
Table 1 provides the results of the assay in the format with 500 pM activated kallikrein assay. For the compounds listed in Table 1, the EC50 values are reported according to the following ranges: A≤5.0 nM; 5.0 nM<B≤50 nM; 50 nM<C≤500 nM; 500 nM<D≤9000 nM; 9000 nM<E.

Chain of human activated kallikrein enzyme (P03952 391-638 limits assumed): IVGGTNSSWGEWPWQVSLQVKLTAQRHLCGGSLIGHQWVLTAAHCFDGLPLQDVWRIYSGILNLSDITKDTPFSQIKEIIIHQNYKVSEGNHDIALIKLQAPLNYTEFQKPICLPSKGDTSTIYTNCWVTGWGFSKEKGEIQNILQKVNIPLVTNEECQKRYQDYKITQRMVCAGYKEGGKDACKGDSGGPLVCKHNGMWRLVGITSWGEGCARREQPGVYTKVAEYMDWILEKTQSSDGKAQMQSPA
Chain of human activated kallikrein enzyme (P03952 20-390 partner limits assumed): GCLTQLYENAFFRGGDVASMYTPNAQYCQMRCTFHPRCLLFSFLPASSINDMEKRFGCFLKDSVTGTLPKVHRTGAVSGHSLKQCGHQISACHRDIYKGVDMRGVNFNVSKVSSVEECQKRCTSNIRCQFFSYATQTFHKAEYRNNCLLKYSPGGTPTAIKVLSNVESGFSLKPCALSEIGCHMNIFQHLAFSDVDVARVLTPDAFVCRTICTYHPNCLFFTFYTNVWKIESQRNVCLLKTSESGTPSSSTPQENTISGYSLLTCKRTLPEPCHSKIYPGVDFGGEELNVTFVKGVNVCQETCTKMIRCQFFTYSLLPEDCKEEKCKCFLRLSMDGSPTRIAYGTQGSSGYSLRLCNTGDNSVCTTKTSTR

EC50 | SMILES
≤ 5 nM | O=C(O)CCc1cc(C2CC2)cn2cc(CNc3cc(NC(=O)Cc4ncn5ccc(Cl)cc45)ncn3)nc12 [Example 39, 3-(2-(((6-(2-(7-chloroimidazo[1,5-a]pyridin-1-yl)acetamido)pyrimidin-4-yl)amino)methyl)-6-cyclopropylimidazo[1,2-a]pyridin-8-yl)propanoic acid]
50 to 500 nM | O=C(Cc1ncn2ccc(Cl)cc12)Nc1cncnc1NCc1cn2cc(C3CC3)ccc2n1 [Example 42, 2-(7-chloroimidazo[1,5-a]pyridin-1-yl)-N-(4-(((6-cyclopropylimidazo[1,2-a]pyridin-2-yl)methyl)amino)pyrimidin-5-yl)acetamide]
≤ 5 nM | CC(C)(Cc1cc(C2CC2)cn2cc(CNc3cc(NC(=O)Cc4ncn5ccc(Cl)cc45)ncn3)nc12)C(=O)O [Example 40, 3-(2-(((6-(2-(7-chloroimidazo[1,5-a]pyridin-1-yl)acetamido)pyrimidin-4-yl)amino)methyl)-6-cyclopropylimidazo[1,2-a]pyridin-8-yl)-2,2-dimethylpropanoic acid]
500 to 9000 nM | O=S(=O)(Nc1cc(NCc2cn3cc(C4CC4)ccc3n2)ncn1)C1CC1c1cccc(Cl)c1 (stereo not drawn) [Example 67, 2-(3-chlorophenyl)-N-(6-(((6-cyclopropylimidazo[1,2-a]pyridin-2-yl)methyl)amino)pyrimidin-4-yl)cyclopropane-1-sulfonamide]
≤ 5 nM | Cc1cc(C(=N)N)cc(C)c1CNc1cc(OCc2cn3cc(C4CC4)ccc3n2)ncn1 [Example 72, 4-(((6-((6-cyclopropylimidazo[1,2-a]pyridin-2-yl)methoxy)pyrimidin-4-yl)amino)methyl)-3,5-dimethylbenzimidamide formic acid salt]
5 to 50 nM | CCOC(=O)CCc1nc(NCc2c(C)cc(C(=N)NC(=O)OCC)cc2C)cc(OCc2cn3cc(C4CC4)ccc3n2)n1 [Example 77, ethyl 3-(4-((6-cyclopropylimidazo[1,2-a]pyridin-2-yl)methoxy)-6-((4-(N-(ethoxycarbonyl)carbamimidoyl)-2,6-dimethylbenzyl)amino)pyrimidin-2-yl)propanoate]
5 to 50 nM | Nc1nccc2c1CCC2Nc1cc(NCc2cn3cc(C4CC4)ccc3n2)ncn1 (stereo not drawn) [Example 56, N^5-(6-(((6-cyclopropylimidazo[1,2-a]pyridin-2-yl)methyl)amino)pyrimidin-4-yl)-6,7-dihydro-5H-cyclopenta[c]pyridine-1,5-diamine]
≤ 5 nM | CCOC(=O)CCc1cc(C2CC2)cn2cc(COc3cc(NCc4c(C)cc(C(=N)N)cc4C)ncn3)nc12 [Example 96, ethyl 3-(2-(((6-((4-carbamimidoyl-2,6-dimethylbenzyl)amino)pyrimidin-4-yl)oxy)methyl)-6-cyclopropylimidazo[1,2-a]pyridin-8-yl)propanoate]
50 to 500 nM | CCCCCCOC(=O)NC(=N)c1cc(C)c(CNc2cc(OCc3cn4cc(C5CC5)ccc4n3)nc(CCC(=O)OCC)n2)c(C)c1 [Example 75, ethyl 3-(4-((6-cyclopropylimidazo[1,2-a]pyridin-2-yl)methoxy)-6-((4-(N-((hexyloxy)carbonyl)carbamimidoyl)-2,6-dimethylbenzyl)amino)pyrimidin-2-yl)propanoate]

Second part, the compound before the results:

SMILES | EC50
O=C(Cc1ncn2ccc(Cl)cc12)Nc1cc(NCc2cn3cc(C4CC4)ccc3n2)nc(C(F)(F)F)n1 [Example 101, 2-(7-chloroimidazo[1,5-a]pyridin-1-yl)-N-(6-(((6-cyclopropylimidazo[1,2-a]pyridin-2-yl)methyl)amino)-2-(trifluoromethyl)pyrimidin-4-yl)acetamide] | 5 to 50 nM
Cc1cc(C(=N)NO)cc(C)c1CNc1cc(OCc2cn3cc(C4CC4)ccc3n2)nc(C(=O)O)n1 [Example 84, 4-((6-cyclopropylimidazo[1,2-a]pyridin-2-yl)methoxy)-6-((4-(N-hydroxycarbamimidoyl)-2,6-dimethylbenzyl)amino)pyrimidine-2-carboxylic acid] | 5 to 50 nM
O=C(Cc1cnc2[nH]cc(Cl)c2c1)Nc1cc(NCc2cn3cc(C4CC4)ccc3n2)ccn1 [Example 130, 2-(3-chloro-1H-pyrrolo[2,3-b]pyridin-5-yl)-N-(4-(((6-cyclopropylimidazo[1,2-a]pyridin-2-yl)methyl)amino)pyridin-2-yl)acetamide] | ≤ 5 nM
N#Cc1cc(C2CC2)cn2cc(COc3cc(NC(=O)Cc4ncn5ccc(Cl)cc45)ncn3)nc12 [Example 22, 2-(7-chloroimidazo[1,5-a]pyridin-1-yl)-N-(6-((8-cyano-6-cyclopropylimidazo[1,2-a]pyridin-2-yl)methoxy)pyrimidin-4-yl)acetamide] | 5 to 50 nM
O=C(CCc1cccc(Cl)c1)Nc1cc(NCc2cn3cc(C4CC4)ccc3n2)ncn1 [Example 8, 3-(3-chlorophenyl)-N-(6-(((6-cyclopropylimidazo[1,2-a]pyridin-2-yl)methyl)amino)pyrimidin-4-yl)propanamide] | 500 to 9000 nM
O=C(Cc1cnc2[nH]cc(Cl)c2c1)Nc1cc(NCc2cn3cc(C4CC4)ccc3n2)ncn1 [Example 129, 2-(3-chloro-1H-pyrrolo[2,3-b]pyridin-5-yl)-N-(6-(((6-cyclopropylimidazo[1,2-a]pyridin-2-yl)methyl)amino)pyrimidin-4-yl)acetamide] | 50 to 500 nM
O=C(Cc1ncn2ccc(Cl)cc12)Nc1cc(C(F)(F)c2cn3cc(C4CC4)ccc3n2)ncn1 [Example 60, 2-(7-chloroimidazo[1,5-a]pyridin-1-yl)-N-(6-((6-cyclopropylimidazo[1,2-a]pyridin-2-yl)difluoromethyl)pyrimidin-4-yl)acetamide formic acid salt] | 50 to 500 nM
O=C(Cc1ncn2ccc(Cl)cc12)Nc1cc(OCc2cn3cc(C4CC4)ccc3n2)ccn1 [Example 23, 2-(7-chloroimidazo[1,5-a]pyridin-1-yl)-N-(4-((6-cyclopropylimidazo[1,2-a]pyridin-2-yl)methoxy)pyridin-2-yl)acetamide] | 5 to 50 nM
CCOC(=O)Cc1cc(C2CC2)cn2cc(COc3cc(NCc4c(C)cc(C(=N)N)cc4C)ncn3)nc12 [Example 94, ethyl 2-(2-((6-(4-carbamimidoyl-2,6-dimethylbenzylamino)pyrimidin-4-yloxy)methyl)-6-cyclopropylimidazo[1,2-a]pyridin-8-yl)acetate] | ≤ 5 nM
CC(O)(C(=O)Nc1cc(NCc2cn3cc(C4CC4)ccc3n2)ncn1)c1ncn2ccc(Cl)c(F)c12 (stereo not drawn) [Example 106, 2-(7-chloro-8-fluoroimidazo[1,5-a]pyridin-1-yl)-N-(6-(((6-cyclopropylimidazo[1,2-a]pyridin-2-yl)methyl)amino)pyrimidin-4-yl)-2-hydroxypropanamide] | > 9000 nM
COCCOc1nc(NCc2cn3cc(C4CC4)ccc3n2)cc(NC(=O)Cc2ncn3ccc(Cl)cc23)n1 [Example 100, 2-(7-chloroimidazo[1,5-a]pyridin-1-yl)-N-(6-(((6-cyclopropylimidazo[1,2-a]pyridin-2-yl)methyl)amino)-2-(2-methoxyethoxy)pyrimidin-4-yl)acetamide] | 5 to 50 nM
COc1ccc(-n2cnnn2)c(CC(=O)Nc2cc(NCc3cn4cc(C5CC5)ccc4n3)ncn2)c1F [Example 37] | ≤ 5 nM
CCCCCCOC(=O)NC(=N)c1cc(C)c(CNc2cc(OCc3cn4cc(C5CC5)ccc4n3)ncn2)c(C)c1 [Example 76, hexyl ((4-(((6-((6-cyclopropylimidazo[1,2-a]pyridin-2-yl)methoxy)pyrimidin-4-yl)amino)methyl)-3,5-dimethylphenyl)(imino)methyl)carbamate] | 50 to 500 nM
CCOC(=O)C(C)(C)Cc1cc(C2CC2)cn2cc(CNc3cc(NC(=O)Cc4ncn5ccc(Cl)cc45)ncn3)nc12 [Example 47, ethyl 3-(2-(((6-(2-(7-chloroimidazo[1,5-a]pyridin-1-yl)acetamido)pyrimidin-4-yl)amino)methyl)-6-cyclopropylimidazo[1,2-a]pyridin-8-yl)-2,2-dimethylpropanoate] | 5 to 50 nM
Cc1cc(C(=N)N)cc(C)c1CNc1cc(OCc2cn3cc(C4CC4)ccc3n2)nc(CCC(=O)O)n1 [Example 74, 3-(4-((4-carbamimidoyl-2,6-dimethylbenzyl)amino)-6-((6-cyclopropylimidazo[1,2-a]pyridin-2-yl)methoxy)pyrimidin-2-yl)propanoic acid formic acid salt] | ≤ 5 nM
O=C(Cc1ncn2ccc(Cl)cc12)Nc1cc(OCc2cn3cc(C4CC4)ccc3n2)cnn1 [Example 32, 2-(7-chloroimidazo[1,5-a]pyridin-1-yl)-N-(5-((6-cyclopropylimidazo[1,2-a]pyridin-2-yl)methoxy)pyridazin-3-yl)acetamide] | ≤ 5 nM
O=c1c(NCc2cn3cc(C4CC4)ccc3n2)c(NCc2ncn3ccc(Cl)cc23)c1=O [Example 68, 3-(((7-chloroimidazo[1,5-a]pyridin-1-yl)methyl)amino)-4-(((6-cyclopropylimidazo[1,2-a]pyridin-2-yl)methyl)amino)cyclobut-3-ene-1,2-dione] | 5 to 50 nM
CCOC(=O)c1nc(NCc2c(C)cc(C(=N)NO)cc2C)cc(OCc2cn3cc(C4CC4)ccc3n2)n1 [Example 81, ethyl 4-((6-cyclopropylimidazo[1,2-a]pyridin-2-yl)methoxy)-6-((4-(N-hydroxycarbamimidoyl)-2,6-dimethylbenzyl)amino)pyrimidine-2-carboxylate] | 50 to 500 nM
